EC50 and ACR mean data for two compounds are collected here from EP4682141A1, “TRICYCLIC COMPOUND” (ONO Pharmaceutical Co., Ltd., priority 2023, dated 2024).

pEC50: −log10 of the molar value. Where only a bound is given, the exact number is not on record here.

One test concerns the target T1, EP1 (Homo sapiens, UniProt P34995).
T1 construct: expressed in transfected cells; host or cells: CHO (EP1-CHO)
T1 sequence (P34995 1-402): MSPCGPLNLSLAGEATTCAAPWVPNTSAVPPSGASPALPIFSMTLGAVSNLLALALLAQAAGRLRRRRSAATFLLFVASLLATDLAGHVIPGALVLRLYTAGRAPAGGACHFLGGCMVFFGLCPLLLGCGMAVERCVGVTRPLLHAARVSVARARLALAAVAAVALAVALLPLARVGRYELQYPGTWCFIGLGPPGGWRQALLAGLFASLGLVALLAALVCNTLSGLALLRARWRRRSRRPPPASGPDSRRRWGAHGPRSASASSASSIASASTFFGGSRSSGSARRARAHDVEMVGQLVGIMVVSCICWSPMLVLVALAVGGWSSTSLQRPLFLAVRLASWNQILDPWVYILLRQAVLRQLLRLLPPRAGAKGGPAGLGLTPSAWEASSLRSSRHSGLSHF
Description: agonist activity on human EP1 receptor (intracellular calcium concentration, EP1-CHO cells). Type of test: cell-based. The gist of the method: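 Calcium 6 dye loaded 1 h at room temperature in HBSS with 1% human serum albumin, 2 µmol/L indomethacin, 2.5 mmol/L probenecid, pH 7.4; agonists then added at various concentrations. Intracellular calcium read by fluorescence (ex 480/em 540 nm) in CHO cells expressing human EP1 or Chem1 cells expressing human EP3.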

A further test relates to diabetes model rat. The test can be described thus: inhibitory effect on the amount of albumin excreted in urine in diabetes model rat. Type of test: in vivo, SDT Fatty rats. To be noted: urine collected for 24 hours, urine albumin/urine creatinine ratio. How it is done: Male SDT Fatty rats aged 6 weeks (CLEA Japan) were purchased and preliminarily bred for 1 week or more. Experiments were performed at 8 to 16 weeks of age. The animals were fed ad libitum with solid feed CRF-1 (Oriental Yeast) and watered ad libitum.
Animals were housed in metabolic cages 2 days before test substance administration, and urine was collected for 24 hours. On the day before administration of the test substance, urine albumin and urine creatinine were measured, and grouping was performed by a stratification randomization method based on the urine albumin/urine creatinine ratio (ACR) and the average value of body weights for each group.
The compounds (test substances) of Examples 9-5, 10, 11, 12, 25-7 and 32, and water for injection (Otsuka Pharmaceutical) as a vehicle were orally administered once at 5 mL/kg. The administration dose is described in Table 3.
For evaluation of the amount of albumin excreted in urine of each animal, a urine albumin/urine creatinine ratio (ACR) was measured. After administration of the test substance, the animals were housed in metabolic cages, and urine was collected for 24 hours. Each concentration of urine albumin and urine creatinine was measured using an automatic analyzer 7180 (Hitachi High-Tech), and ACR was calculated by dividing the urine albumin concentration by the urine creatinine concentration.

Regarding `Cc1c(C(=O)O)ccc2c1O[C@H]1C[C@@H](O)[C@H](/C=C/C[C@@](C)(O)CCCC(F)(F)F)[C@H]1CC2` [Example 12, (1R,2R,3aS,10aR)-2-hydroxy-5-methyl-1-[(1E,4S)-8,8,8-trifluoro-4-hydroxy-4-methyl-1-octen-1-yl]-2,3,3a,9,10,10a-hexahydro-1H-benzo[b]cyclopenta[f]oxepine-6-carboxylic acid], the pEC50 on EP1 was 5.46. The ACR mean in the test with diabetes model rat (0.01 mg/kg orally once) is 4602.3 µg/mg; in the test with diabetes model rat (0.03 mg/kg orally once), 3887.3 µg/mg.
Take `CC(C)(c1ccccc1)C(O)/C=C/[C@H]1CC[C@@H]2Oc3c(ccc(C(=O)O)c3F)CC[C@@H]21` (stereo partly drawn) [Example 25-7, (1R,3aS,10aR)-5-fluoro-1-[(1E,3ξ)-3-hydroxy-4-methyl-4-phenyl-1-penten-1-yl]-2,3,3a,9,10,10a-hexahydro-1H-benzo[b]cyclopenta[f]oxepine-6-carboxylic acid]: the pEC50 at EP1 is less than 5.00. For the same compound, the figures for the ACR mean with diabetes model rat (0.003 mg/kg orally once) and in the test with diabetes model rat (0.01 mg/kg orally once) were 3217.6 µg/mg and 2331.6 µg/mg, respectively.
